Reference: patent US7973047B2, “Beta-Secretase modulators and methods of use” (Amgen Inc., priority 2010, dated 2011)
Where two headings read alike, the source gives them in different places.

System: Aβ40 in conditioned medium of cells stably expressing Amyloid Precursor Protein (APP)
Test: BACE cell-based assay: Aβ40 in conditioned medium by sandwich ELISA
Procedure: The cell-based assay measures inhibition or reduction of Aβ40 in conditioned medium of test compound treated cells expressing amyloid precursor protein.
Cells stably expressing Amyloid Precursor Protein (APP) were plated at a density of 40K cells/well in 96 well plates (Costar). The cells were cultivated for 24 hours at 37° C. and 5% CO2 in DMEM supplemented with 10% FBS. The test compounds were then added to cells in 10-point dose response concentrations with the starting concentration being either 100 μM or 10 μM. The compounds were diluted from stock solutions in DMSO and the final DMSO concentration of the test compounds on cells was 0.1%. After 24 h of incubation with the test compounds the supernatant conditioned media was collected and the Aβ40 levels were determined using a sandwich ELISA. The ICso of the compound was calculated from the percent of control or percent inhibition of Aβ40 as a function of the concentration of the test compound.
The sandwich ELISA to detect Aβ40 was performed in 96 well microtiter plates, which were pre-treated with goat anti-rabbit IgG (Pierce). The capture and detecting antibody pair that were used to detect Aβ40 from cell supernatants were affinity purified pAb40 (Biosource) and biotinylated 6E10 (Signet Labs Inc.), respectively. The optimal concentration for the pAb40 antibody was 3 μg/ml in Superblock/TBS (Pierce) that was supplemented with 0.05% Tween 20 (Sigma).
Cellular supernatants were incubated with the capture antibody for 3 h at 4° C., followed by 3 wash steps in TBS-tween (0.05%). The detecting antibody incubation was for 2 h at 4° C., again followed by the wash steps as described previously. The final readout of the ELISA is Time-Resolved Fluorescence (counts per minute) using Delfia reagents Streptavidin-Europium and Enhancement solutions (Perkin Elmer) and the Victor 2 multilabel counter (Perkin Elmer).

[1] = cell based assay data of Table 4, unit inferred, read-out: Cell Assay
[2] = cell based assay data, Table 4, unit inferred, read-out: Cell Assay

Compound | IC50 [1] [nM] | further results
CC(=O)N[C@@H](Cc1ccncc1)[C@H](O)CN[C@H]1CC2(CCC2)Oc2ncc(CC(C)(C)C)cc21 [compound 635, N-((1S,2R)-3-(((4′S)-6′-(2,2-dimethylpropyl)-3′,4′-dihydrospiro[cyclobutane-1,2′-pyrano[2,3-b]pyridin]-4′-yl)amino)-2-hydroxy-1-(4-pyridinylmethyl)propyl)acetamide] | 3.04 | –
C=C(C)C[C@H](NC(C)=O)[C@H](O)CN[C@H]1CC2(CCC2)Oc2ncc(CC(C)(C)C)cc21 [compound 539, N-((1S)-1-((1R)-2-(((4′S)-6′-(2,2-dimethylpropyl)-3′,4′-dihydrospiro[cyclobutane-1,2′-pyrano[2,3-b]pyridin]-4′-yl)amino)-1-hydroxyethyl)-3-methyl-3-buten-1-yl)acetamide] | 50.3 | –
CC(=O)N[C@@H](Cc1cc(F)cc(F)c1)[C@@H](O)CN[C@H]1CC2(CCC2)Oc2ccc(-n3cccn3)cc21 [compound 781] | – | IC50 [2]: 1160 nM
CC(=O)N[C@@H](Cc1ccc(F)cc1)[C@H](O)CN[C@H]1CC2(CCC2)Oc2c1cc(CC(C)(C)C)nc2NC(C)(C)C [compound 589] | 615 | –
CC(=O)N[C@@H](Cc1cc(F)c(F)c(F)c1)[C@H](O)CN[C@H]1CC2(CCC2)Oc2ncc(CC(C)(C)C)cc21 [compound 686] | 7.07 | –
COC(=O)N[C@@H](Cc1cc(F)cc(F)c1)[C@H](O)CN[C@H]1CC2(CCC2)Oc2ncc(CC(C)(C)C)cc21 [compound 876] | – | IC50 [2]: 10.8 nM
CC(=O)N[C@@H](Cc1ccc(F)cc1)[C@H](O)CN[C@H]1CC2(CCC2)Oc2ncc(CC(C)(C)C#N)cc21 [compound 650] | 20.2 | –
COc1ccc(C[C@H](NC(C)=O)[C@H](O)CN[C@H]2CC3(CCC3)Oc3ncc(CC(C)(C)C)cc32)cc1F [compound 665] | 8.53 | –
CC(=O)N[C@@H](Cc1ccccc1)[C@H](O)CN[C@H]1CC2(CCC2)Oc2c1cc(CC(C)(C)C)nc2N1CCCC1 [compound 755] | – | IC50 [2]: 6.5 nM
CC(=O)N[C@@H](Cc1ccccc1)[C@H](O)CN[C@H]1CC2(CCC2)Oc2ccc(CCCCCO)cc21 [compound 822] | – | IC50 [2]: 66.2 nM
CC(=O)N[C@@H](Cc1cccc(Cl)c1F)[C@H](O)CN[C@H]1CC2(CCC2)Oc2ncc(CC(C)(C)C)cc21 [compound 868] | – | IC50 [2]: 6.26 nM
COC1CN(c2nc(CC(C)(C)C)cc3c2OC2(CCC2)C[C@@H]3NC[C@@H](O)[C@H](Cc2cccc(F)c2)NC(C)=O)C1 [compound 604] | 5.79 | –
CC(=O)N[C@@H](Cc1ccc(F)cc1)[C@H](O)CN[C@H]1CC2(CCC2)Oc2nc(F)c(CC(C)C)cc21 [compound 854] | – | IC50 [2]: 151 nM
CC(=O)N[C@@H](Cc1csc(C)n1)[C@H](O)CN[C@H]1CC2(CCC2)Oc2ncc(CC(C)(C)C)cc21 [compound 639, N-((1S,2R)-3-(((4′S)-6′-(2,2-dimethylpropyl)-3′,4′-dihydrospiro[cyclobutane-1,2′-pyrano[2,3-b]pyridin]-4′-yl)amino)-2-hydroxy-1-((2-methyl-1,3-thiazol-4-yl)methyl)propyl)acetamide] | 23.7 | –
CC(=O)N[C@@H](Cc1ccc(Cl)cc1)[C@H](O)CN[C@H]1C[C@]2(C[C@H](C)C2)Oc2ncc(CC(C)C)cc21 [compound 618, N-((1S,2R)-1-((4-chlorophenyl)methyl)-2-hydroxy-3-(((1s,3R,4′S)-3-methyl-6′-(2-methylpropyl)-3′,4′-dihydrospiro[cyclobutane-1,2′-pyrano[2,3-b]pyridin]-4′-yl)amino)propyl)acetamide] | 72.2 | –
COCCC(=O)N[C@@H](Cc1ccc(F)cc1)[C@H](O)CN[C@H]1CC2(CCC2)Oc2ncc(CC(C)(C)C)cc21 [compound 633] | 17.1 | –
CC(=O)N[C@@H](Cc1ccc(F)cc1)[C@H](O)CN[C@H]1CC2(CCCC2)C(=O)c2ccc(CC(C)(C)C)cc21 [compound 563, N-((1S,2R)-3-(((4′S)-6′-(2,2-dimethylpropyl)-1′-oxo-3′,4′-dihydro-1′H-spiro[cyclopentane-1,2′-naphthalen]-4′-yl)amino)-1-((4-fluorophenyl)methyl)-2-hydroxypropyl)acetamide] | ≥ 10000 | –
CC(=O)N[C@@H](Cc1cccc(C(F)(F)F)c1)[C@H](O)CN[C@H]1CC2(CCC2)Oc2ncc(CC(C)(C)F)cc21 [compound 838] | – | IC50 [2]: 13.3 nM
CC(=O)N[C@@H](Cc1ccc(OC(F)(F)F)cc1)[C@H](O)CN[C@H]1CC2(CCC2)Oc2ncc(CC(C)(C)C)cc21 [compound 712] | – | IC50 [2]: 65 nM
CC(=O)N[C@@H](Cc1cc(F)cc(F)c1)[C@H](O)CN[C@H]1CC2(CCC2)Oc2ncc(CC3CC3)cc21 [compound 687] | 7.84 | –
CC(=O)N[C@@H](Cc1cc(F)cc(F)c1)[C@H](O)CN[C@H]1CC2(CCC2)Oc2ccc(N3CCCC3=O)cc21 [compound 793] | – | IC50 [2]: 359 nM
CC(=O)N[C@@H](Cc1cccc(F)c1)[C@H](O)CN[C@H]1CC(C)(C)Oc2ncc(CC(C)(C)C)cc21 [compound 546] | 1.67 | –
CC(=O)N[C@@H](Cc1cc(F)cc(F)c1)[C@H](O)CN[C@H]1CC(C)(C)Oc2ncc(CC(C)(C)C)cc21 [compound 573] | 3.12 | –
COc1cccc(C[C@H](NC(C)=O)[C@H](O)CN[C@H]2CC3(CCC3)Oc3ncc(CC(C)(C)C)cc32)c1 [compound 579] | 4.61 | –
CCc1ccc2c(c1)[C@@H](NC[C@@H](O)[C@H](Cc1cccc(Br)c1)NC(=O)CCCCCCNC(=O)OCc1ccccc1)CC1(CCC1)O2 [Example 337] | – | IC50 (cells stably expressing APP, 24 h incubation with compound, Aβ40 in supernatant by sandwich ELISA, read-out: IC50 values in the cell-based assay (inhibition or reduction of Aβ40)): ≤ 5000 nM
CC(=O)N[C@@H](Cc1cc(F)cc(F)c1)[C@H](O)CN[C@H]1CC2(CCC2)Oc2ccc(-n3cncn3)cc21 [compound 792] | – | IC50 [2]: 137 nM
CC(=O)N[C@@H](Cc1ccc(F)cc1F)[C@H](O)CN[C@H]1CC2(CCC2)Oc2ncc(CC(C)(C)C)cc21 [compound 704] | 18.4 | –
COC(=O)N[C@@H](Cc1ccc(Cl)cc1)[C@H](O)CN[C@H]1CC2(CCC2)Oc2ncc(CC(C)(C)C)cc21 [compound 627] | 936 | –

Continued, in another order:

IC50 [1] [nM] | Compound | further results
4.64 | CC(=O)N[C@@H](Cc1ccc(F)c(C)c1)[C@H](O)CN[C@H]1CC2(CCC2)Oc2ncc(CC(C)(C)C)cc21 [compound 575] | –
141 | CC(=O)N[C@@H](Cc1ccc(F)c(Br)c1)[C@H](O)CN[C@H]1CC2(CCC2)Nc2ccc(CC(C)(C)C)cc21 [compound 562, N-((1S,2R)-1-((3-bromo-4-fluorophenyl)methyl)-3-(((4′S)-6′-(2,2-dimethylpropyl)-3′,4′-dihydro-1′H-spiro[cyclobutane-1,2′-quinolin]-4′-yl)amino)-2-hydroxypropyl)acetamide] | –
3.24 | CC(=O)N[C@@H](Cc1cccc(F)c1)[C@H](O)CN[C@H]1CC2(CCC2)Oc2c1cc(CC(C)(C)C)nc2NC1CCOCC1 [compound 592] | –
13.8 | CC(=O)N[C@@H](Cc1ccc(F)cc1)[C@H](O)CN[C@H]1CC(C)(C)Oc2ncc(CC(C)(C)C)cc21 [compound 572] | –
62 | CC(=O)N[C@@H](Cc1ccc(Cl)cc1)[C@H](O)CN[C@H]1C[C@]2(CC[C@@H]2C)Oc2ncc(CC(C)(C)C)cc21 [compound 620] | –
18.1 | CC(=O)N[C@@H](Cc1ccc(F)c(C(F)(F)F)c1)[C@H](O)CN[C@H]1CC2(CCC2)Oc2ncc(CC(C)(C)C)cc21 [compound 676] | –
20.3 | N-((1S,2R)-3-(((4′S)-6′-(2,2-dimethylpropyl)-3′,4′-dihydrospiro[cyclopropane-1,2′-pyrano[2,3-b]pyridin]-4′-yl)amino)-1-((4-fluoro-3-methylphenyl)methyl)-2-hydroxypropyl)acetamide [compound 550] | –
